Source: the NIST ThermoML archive (doi:10.1021/acs.jced.8b00643)

Assays:
[1] = for vapor or sublimation pressure: Transpiration method
[2] = Molar enthalpy of transition or fusion; details: Crystal; DSC

O=C1NCCCO1 [tetrahydro-1,3-oxazin-2-one]
Details | mass density [kg/m3]
[1], 293 K, 101.33 kPa, Crystal, Pycnometric method | 1490

[1]
Details | Triple point temperature [K] | vapor or sublimation pressure [kPa]
327.7 K, Crystal | – | 0.00023
332.7 K, Crystal | – | 0.00039
337.7 K, Crystal | – | 0.00061
342.7 K, Crystal | – | 0.001
345.7 K, Crystal | – | 0.00134
348.6 K, Crystal | – | 0.00167
352.6 K, Crystal | – | 0.0024
358 K, Liquid | – | 0.00409
361.3 K, Liquid | – | 0.00517
365.3 K, Liquid | – | 0.00677
368 K, Liquid | – | 0.00807
370.2 K, Liquid | – | 0.0095
372.8 K, Liquid | – | 0.01116
377.4 K, Liquid | – | 0.01498
380.3 K, Liquid | – | 0.01771
382.2 K, Liquid | – | 0.02005
385.1 K, Liquid | – | 0.02395
Crystal, DSC | 355.3 | –

Details | Molar enthalpy of transition or fusion [kcal/mol]
[2] | 3.66
